SMILES strings stand for the structures. Counter-ions that a name gives are not always drawn.

As usually defined, the inhibition is the change of the read-out against control, counted positive when it falls.

For the first test, the target named is T1, CBS (Homo sapiens, UniProt P35520).
T1 sequence (P35520 1-551): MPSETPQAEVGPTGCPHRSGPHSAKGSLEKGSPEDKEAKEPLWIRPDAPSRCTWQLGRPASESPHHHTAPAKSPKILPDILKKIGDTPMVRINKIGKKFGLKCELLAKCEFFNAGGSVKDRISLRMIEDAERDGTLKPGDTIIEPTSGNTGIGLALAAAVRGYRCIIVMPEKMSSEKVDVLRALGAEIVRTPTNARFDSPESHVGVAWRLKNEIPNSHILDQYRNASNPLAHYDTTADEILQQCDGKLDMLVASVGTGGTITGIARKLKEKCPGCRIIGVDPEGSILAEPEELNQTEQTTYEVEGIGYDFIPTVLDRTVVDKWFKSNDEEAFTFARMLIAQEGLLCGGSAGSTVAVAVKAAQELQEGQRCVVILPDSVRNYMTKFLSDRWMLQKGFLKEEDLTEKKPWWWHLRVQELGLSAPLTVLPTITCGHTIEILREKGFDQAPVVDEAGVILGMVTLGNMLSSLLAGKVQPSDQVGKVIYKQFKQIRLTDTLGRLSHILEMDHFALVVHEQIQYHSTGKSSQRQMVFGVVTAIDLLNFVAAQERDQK
The test can be described thus: CBS inhibitor screen: H2S production by recombinant CBS (methylene blue assay). It counts as biochemical. On the set-up: These studies used full-length human CBS enzyme; made in house; host or cells: E. coli BL21 (DE3) Codon Plus. The conditions noted are these: 100 μM; homocysteine-induced H2S production; LOPAC library screen. An excerpt:
Studies have been performed characterizing, in detail, the specificity and selectivity of all known H2S biosynthesis inhibitors, using recombinant CBS and CSE enzymes. These studies used full-length human CBS enzyme, and a colorimetric ‘capture’ reaction of the H2S produced by these enzymes, an assay generally known as the ‘methylene blue assay’. This assay is used in a 96-well plate format, as well as in combination with a second screening method based on a fluorescent dye.
Human recombinant CBS is expressed as described (Asimakopoulou et al, (2013) Br J Pharmacol. 169(4):922-32). A library of pharmacologically active compounds (e.g., LOPAC library, Sigma; 1240 compounds) is tested on homocysteine-induced H2S production. In certain aspects the assay is in a 96-well format. In certain aspects H2S production is measured by the methylene blue assay (Asimakopoulou et al., (2013) Br J Pharmacol. 169(4):922-32).
Plasmids, bacterial strains and media. E. coli BL21 (DE3) Codon Plus is used as a host strain to express recombinant human CSE or CBS. CSE cDNA was cloned into pGEX-4T3 and CBS into pGEX-Kg to create N-terminal GSH-S-transferase (GST) fusion proteins. The expression vectors were transformed and plated on LB-agar plates, supplemented with ampicillin (100 μg/mL).
The expression and purification of CSE and CBS is performed as described previously with modifications (Frank et al., (2008) Arch Biochem Biophys 470:64-72; Huang et al., (2009) J Mol Biol 396: 708-18). Briefly, BL21(DE3) Codon Plus cells containing either the expression vector pGEX-4T3/GST-CSE or pGEX-Kg/GST-CBS are grown at 37° C. and 180 r.p.m. in LB broth medium containing 100 μg/mL ampicillin to an absorption of 0.6-0.8 at 600 nm. In addition, 0.3 mM d-ALA is added to the culture containing pGEX-Kg/GST-CBS. Then protein expression is induced by addition of 0.1 mM IPTG. Cells containing pGEX-4T-3/GST-CSE are incubated overnight at 18° C., whereas cells containing pGEXKg/GST-CBS are incubated overnight at 30° C. Culture is then centrifuged at 4° C. and 5000×g for 10 min and the cell pellet was resuspended in PBS (140 mM NaCl, 2.7 mM KCl, 10 mM Na2HPO4, 1.8 mM KH2PO4, pH 7.8) and stored at −20° C. overnight. After thawing, the suspension is sonicated in lysis buffer containing PBS and protease inhibitor cocktail for GST-CSE and PBS, 5 mM DTT, 1% Triton X-100, […] and protease inhibitor cocktail for GST-CBS. After centrifugation at 4° C. for 30 min, the soluble fraction containing either the GST-CSE or the GST-CBS recombinant protein is loaded onto a GSTrap FF 1 mL affinity column that has been equilibrated with binding buffer PBS. The column was consecutively washed with five column volumes of binding buffer. Proteins attached to the column, including GST-CSE or GST-CBS recombinant proteins, are eluted with five column volumes of elution buffer (50 mM Tris-HCl, 10 mM reduced GSH, pH 8.0) and then dialysed and concentrated in 10 mM sodium phosphate buffer pH 8.2 and DTT 1 mM. The purity of the recombinant enzymes was checked by SDS-PAGE on 12% polyacrylamide gels after staining of protein bands with Coomassie Blue R-250. Protein concentration was determined using the DC protein assay kit.
H2S determination is performed according to Stipanuk and Beck ((1982) Biochem J 206:267-77) with some modifications. In the case of the CSE enzyme, an assay consist of a 100 μL reaction mixture containing 5 μg of the purified CSE enzyme, 0.01 mM PLP, 1 mM L-cys, and 50 mM sodium phosphate buffer pH 8.2. For the CBS enzyme, the reaction mixture contains the same as for the CSE plus 1 mM homocysteine. The inhibitors can be added to the reaction before L-cys is added to the solution. Reactions are initiated by transferring the reaction solutions from ice to a 37° C. shaking water bath. After incubation at 37° C. the reaction is terminated by adding 1% ZnAc to trap H2S followed by 10% TCA to precipitate proteins. […]
Consider `O=C1Nc2ccc(I)cc2/C1=C/c1cc(Br)c(O)c(Br)c1` [GW5074], for which the “Inhibition of CBS activity at 100 μM” value is given as 87%. Still for that read-out and setting: the result for `NC(Cc1cc(O)c(O)cc1O)C(=O)O` (racemic) [6-Hydroxy-DL-DOPA] reads 77%. The same measure, in the same setting: the result for `C[n+]1c2cc(N)ccc2cc2ccc(N)cc21` [Acriflavinium] reads 64%; that for `Cl.NC[C@@H]1O[C@H](C23CC4CC(CC(C4)C2)C3)Cc2c1ccc(O)c2O` [A-77636 hydrochloride], 30%. Still for that read-out and setting: under `CC[N+](C)(CC)CCC[n+]1c(-c2ccccc2)c2cc(N)ccc2c2ccc(N)cc21.[I-].[I-]` [Propidium iodide] stands 41%. Consider `CN(N=O)c1ccc(O)c(O)c1` [Me-3,4-dephostatin], for which the “Inhibition of CBS activity at 100 μM” value amounted to 85%. On the same count and under the same terms, under `CN1CC[C@@]2(C)c3cc(O)ccc3N(C)[C@@H]12.O=C(O)/C=C/C(=O)O` [Eseroline fumarate] stands 60%.

Staying with this test, now noted: 100 μM; homocysteine-induced H2S production; LOPAC library screen; read-out: Inhibition of CBS activity at 100 μM.
Regarding `CC(C)C(=O)c1c(C(C)C)nn2ccccc12` [Ibudilast], the inhibition at 100 µM stood at 30%. As to `CCC1(c2ccccc2)NC(=O)N(C)C1=O` (centres unmarked) [Mephenytoin], the inhibition at 100 µM was 32%. Same read-out and setting: under `Cc1ccc(C(=O)Nc2ccc(S(=O)(=O)O)c3cc(S(=O)(=O)O)cc(S(=O)(=O)O)c23)cc1NC(=O)c1cccc(NC(=O)Nc2cccc(C(=O)Nc3cc(C(=O)Nc4ccc(S(=O)(=O)O)c5cc(S(=O)(=O)O)cc(S(=O)(=O)O)c45)ccc3C)c2)c1` [Suramin sodium] stands 57%; under `CC(C)=CC[C@@H](O)C1=CC(=O)c2c(O)ccc(O)c2C1=O` [Shikonin], 51%; under `CN1CC[C@@]2(C)c3cc(OC(=O)Nc4ccccc4)ccc3N(C)[C@@H]12` [Phenserine], 53%.

As to `Cc1c(C)c2c(c(C)c1O)CCC(C)(COc1ccc(CC3SC(=O)NC3=O)cc1)O2` (centres unmarked) [Troglitazone], the inhibition at 100 µM is 30%.

As to `COc1cccc2c1C(=O)c1c(O)c3c(c(O)c1C2=O)C[C@@](O)(C(=O)CO)C[C@@H]3O[C@H]1C[C@H](N)[C@H](O)[C@H](C)O1` [Doxorubicin], the inhibition at 100 µM turned out to be 52%. The same measure, in the same setting: under `O=C(c1ccc(OCCN2CCCCC2)cc1)c1c(-c2ccc(O)cc2)sc2cc(O)ccc12` [Raloxifene] stands 60%; under `CN(C)[C@@H]1C(O)=C(C(N)=O)C(=O)[C@@]2(O)C(O)=C3C(=O)c4c(O)cccc4[C@@](C)(O)[C@H]3C[C@@H]12` [Tetracycline], 43%. Same read-out and setting: under `COc1cc(C(=O)NS(=O)(=O)c2ccccc2C)ccc1Cc1cn(C)c2ccc(NC(=O)OC3CCCC3)cc12` [Zafirlukast] stands 81%. On to `O=C(O)C1=CC(=C(c2ccc(O)c(C(=O)O)c2)c2ccc(O)c(C(=O)O)c2)C=CC1=O` [Aurintricarboxylic acid], for which the inhibition at 100 µM worked out at 75%.

Regarding `C=C1CC[C@H](O)C/C1=C/C=C1\CCC[C@]2(C)[C@@H]([C@H](C)CCCC(C)(C)O)CC[C@@H]12` [Calcifediol], the inhibition at 100 µM amounted to 32%. On the same count and under the same terms, under `CC(C)(Sc1ccc(CCN(CCCCC2CCCCC2)C(=O)NC2CCCCC2)cc1)C(=O)O` [GW7647] stands 73%; under `C[C@H]1c2cccc(O)c2C(=O)C2=C(O)[C@]3(O)C(=O)C(C(N)=O)=C(O)[C@@H](N(C)C)[C@@H]3[C@@H](O)[C@@H]21` [Doxycycline], 57%. Same read-out and setting: the result for `C[C@@H](N)[C@H]1CC[C@H](C(=O)Nc2ccncc2)CC1` [Compound Y-27632] reads 94%; that for `C[C@]12CC[C@@H]3c4ccc(O)cc4CC[C@H]3[C@@H]1CC[C@@H]2O` [Estradiol], 53%; that for `CC[C@H](c1ccc(O)cc1)[C@@H](CC)c1ccc(O)cc1` [Hexestrol], 50%. On the same count and under the same terms, the result for `COC1=C(OC)C(=O)c2ccccc2C1=O` [2,3-Dimethoxy-1,4-naphthoquinone] reads 98%; that for `CC1=C(/C=C/C(C)=C/C=C/C(C)=C/C(=O)O)C(C)(C)CCC1` [Retinoic acid], 43%.

As to `CN(C)[C@@H]1C(O)=C(C(N)=O)C(=O)[C@@]2(O)C(O)=C3C(=O)c4c(O)ccc(Cl)c4[C@@H](O)[C@H]3C[C@@H]12` [Demeclocycline hydrochloride], the inhibition at 100 µM came out at 96%. Consider `C[C@H](CCC(=O)O)[C@H]1CC[C@H]2[C@@H]3CC[C@@H]4C[C@H](O)CC[C@]4(C)[C@H]3CC[C@]12C` [Lithocholic acid], for which the inhibition at 100 µM amounted to 42%. Still for that read-out and setting: under `C=C(c1ccc(C(=O)O)cc1)c1cc2c(cc1C)C(C)(C)CCC2(C)C` [Bexarotene] stands 58%; under `C[C@@](Cc1ccc(O)c(O)c1)(NN)C(=O)O` [Carbidopa], 45%.

For `Cc1cc(C(C#N)c2ccc(Cl)cc2)c(Cl)cc1NC(=O)c1cc(I)cc(I)c1O` (centres unmarked) [Closantel], the inhibition at 100 µM is 72%.

The test is the same for the next values; noted with them: read-out: Inhibition of CBS activity at 100 μM.
With `CC(=O)c1c(O)c(C)c(O)c(Cc2c(O)c3c(c(C(=O)/C=C/c4ccccc4)c2O)OC(C)(C)C=C3)c1O` [Rottlerin], the inhibition at 100 µM was determined as 96%.

Source of the values: patent US10335382B2, “Use of hydrogen sulfide synthesis inhibitors for cancer therapy” (THE BOARD OF REGENTS OF THE UNIVERSITY OF TEXAS SYSTEM, priority 2013, dated 2019).
